{"source": "patent US20180200331A1", "about": "“BST-2 AS A THERAPEUTIC TARGET AND DIAGNOSTIC MARKER FOR BREAST CANCER GROWTH AND METASTASIS” (University of Iowa Research Foundation, priority 2015, published 2018)", "key": {"BST-2 [1]": {"tested_on": "BST-2", "conditions": "cited from earlier work"}, "Claudin-6 (CLDN6) [2]": {"tested_on": "Claudin-6 (CLDN6)", "conditions": "all cell types, GEO datasets; cited from earlier work"}, "E0771 cells [3]": {"tested_on": "E0771 cells", "assay": "Boyden chamber assay", "type": "cell-based, mouse", "conditions": "20 hours", "description": "The apical chamber of 24-well cell culture inserts (Merck Millipore, Billerica, Mass., USA) were seeded with previously starved sh137, sh413 or shControl transduced E0771 cells (150,000) in serum-free medium. Culture medium containing 30% FBS was added to the basal chamber of the unit and cells were allowed to migrate through the membranous barrier for 20 hours at 37° C. Non-migrated cells were washed off, migrated cells were fixed with 4% PFA for 5 minutes, washed twice with 1×PBS, permeabilized with 100% methanol for 25 minutes, labeled with Giemsa stain (for 15 minutes at room temperature) and imaged using a Nikon Eclipse Ti microscope adjusted with an X-cite series 120 LED fluorescence microscope light source and a Nikon digital sight camera. Images were processed using Image J software. Cells from five different fields were counted and averaged."}, "E0771 cells [4]": {"tested_on": "E0771 cells", "assay": "MTT assay, E0771", "type": "cell-based, mouse", "description": "A total of 5,000 cells stably expressing sh137, sh413, or shControl were plated in 96-well plates. Cells were then incubated with 5 mg/ml MTT reagent for 3.5 hours followed by addition of MTT solvent (0.1% NP-40 and 4 mM HCl in isopropanol) and rocking for 15 minutes. Absorbance at 590 nm was read using a Tecan Infinite M200 Pro plate reader."}, "E0771 and 4T1 cells": {"tested_on": "E0771 and 4T1 cells", "assay": "BrdU assay", "type": "cell-based, mouse", "description": "A total of 5,000 cells were plated in 96-well plates for 24 hours. Bromodeoxyuridine or 5-bromo-2′-deoxyuridine (BrdU) (Calbiochem, Billerica, Mass., USA) assay was carried out according to the manufacturer's instructions. Absorbance at 450 nm was read using a Tecan Infinite plate reader. In parallel, 150,000 cells were plated in 24-well plates for 24 hours. Cells were incubated with BrdU label (1:2000) for 20 hours, treated with a fixative/denaturing solution (30 minutes) and incubated with an anti-BrdU antibody (1:1000) and rat anti-mouse BST-2 antibody (1:200, eBioscience) for 1 hour at room temperature. Cells were washed and incubated with Alexa Fluor 594 anti-rat (Invitrogen, Waltham, Mass., USA) and Alexa Fluor 488 anti-mouse (Invitrogen) secondary antibodies for 30 minutes at room temperature. Cells were stained with 4′,6-diamidino-2-phenylindole (DAPI)-containing Vectashield (Vector Laboratories, Burlingame, Calif., USA) and imaged using a Zeiss 710 confocal microscope (Carl Zeiss, Oberkochen, Germany). Images were processed using Image J software. BrdU label, fixative/denaturing solution, and anti-BrdU antibody were from BrdU (Calbiochem) assay."}, "mammary cancer cells [5]": {"tested_on": "mammary cancer cells", "assay": "Scratch assay", "type": "cell-based, mouse", "conditions": "6 h and 24 h", "description": "Confluent monolayers of cancer cells plated in 12-well plates were scratched using a pipette tip. Fresh medium was added to the wells. Cells were allowed to migrate for 0, 6 or 24 hours before fixation (4% paraformaldehyde (PFA) for 45 minutes). Fixed cells were washed (1×PBS) and imaged with a Nikon Eclipse Ti microscope adjusted with a Nikon digital sight camera (Nikon, Tokyo, Japan). Images were processed and migrated cells counted using Image J software."}, "BST-2 [6]": {"tested_on": "BST-2", "assay": "shRNA knockdown of BST-2 in E0771 and 4T1 cells", "type": "cell-based, mouse", "conditions": "E0771 and 4T1 cells stably transduced", "excerpt": "E0771 and 4T1 cells were stably transduced with a construct expressing LV-CMV-firefly luciferase or an empty vector construct using lipofectamine following the manufacturer's instructions (Life Technologies, Carlsbad, Calif., USA). Stable transfectants were then transduced with lentiviral particles carrying BST-2-targeting sh137: CCGGC […] (SEQ ID NO:3); sh413: […] TTCTCAAGCTTTTTG (SEQ ID NO:4); or a non-targeting shControl: […] (SEQ ID NO:5) using a previously described protocol. Stable cells were generated by selection with the appropriate drug. The short hairpin RNA (shRNA) constructs were purchased from Sigma-Aldrich (St Louis, Mo., USA) (SHCLND-NM_198095) and lentiviral particles were generated at the Gene Transfer Vector Core at the University of Iowa.\nCell monolayers were washed with PBS and treated with Versene (Life Technologies). […] Stained cells were quantified using a FACSCalibur flow cytometer (BD Biosciences, San Jose, Calif., USA). […] Fluorescence-activated cell sorting (FACS) data were analyzed by Flowjo software (TreeStar, Ashland, Oreg., USA). […]\nWestern blots were performed as previously described. […] Band detection and quantification were carried out with the Odyssey Infrared Imaging System (LI-COR Biosciences, Lincoln, Nebr., USA)."}, "E0771 or 4T1 cells": {"tested_on": "E0771 or 4T1 cells", "assay": "Cell invasion assay (Matrigel)", "type": "cell-based, mouse", "conditions": "24 h", "description": "The apical chamber of 24-well cell culture inserts (Merck Millipore) were coated with 3 mg/ml of Matrigel (100 μl) (Sigma-Aldrich) and allowed to solidify for 5 hours. A total of 100,000 sh413- or shControl-transduced E0771 or 4T1 cells in serum-free medium were plated on top of the Matrigel layer. Culture medium containing 10% FBS and 5 μg/ml fibronectin (adhesive substrate) (Sigma-Aldrich) was added to the basal chamber of the unit (600 μl) and cells were allowed to invade through the membranous barrier for 24 hours at 37° C. Noninvasive cells were washed off; invasive cells were fixed with 4% PFA, permeabilized with 100% methanol, labeled with Giemsa stain and imaged as described in the previous paragraph. Images were processed using Image J software. Cells from five different fields were counted and averaged."}, "mammary cancer cells [7]": {"tested_on": "mammary cancer cells", "assay": "Transformation assay (soft agar colony formation)", "type": "cell-based, mouse", "conditions": "compared to shControl", "description": "Agar was mixed in Roswell Park Memorial Institute medium (RPMI) with 20% FBS. A total of 500 μl of 0.5% agar was added to 24-well plate and allowed to solidify. Cells were plated at 1,250 cells/well in 500 μl of 0.35% agarose. Some 250 μl of the appropriate growth medium was added on top of the agarose layer. Growth medium was replaced twice a week. Colonies were stained with crystal violet and imaged. Colonies from five different fields were counted and averaged."}, "Half-life of B49nc": {"assay": "Half-life of B49nc", "excerpt": "We generated a truncated form of B49 called “B49nc” having the sequence […] (SEQ ID NO:14)."}, "MDA-MB-231 cells": {"tested_on": "MDA-MB-231 cells", "assay": "Cancer cell to cancer cell adhesion assay on MDA-MB-231 shControl monolayers", "type": "cell-based, human", "conditions": "monolayers blocked with 200 ng/well for 4 hours; adhesion 4 hours", "description": "FIG. 46. […] Moreover, MDA-mb-231 SHcONTROL CELLS WERE ADDED TO mda-mb-231 ShBST-2 monolayers (on shBST-2). (Each data point corresponds to six different wells analyzed. Error bars correspond to SEM. Significance was taken at P<0.0005*** or P<0.0001****.\nMDA-MB-231 cells expressing shBST-2 or shControl were plated to confluency in a 96-well plate. MDA-MB-231 shControl cells were blocked with water (Vehicle), 200 ng/well of recombinant BST-2 (Sino Biological Inc.), 200 ng/well of B49 peptide or 200 ng of B49nc peptide for 4 hours. Wells were washed twice with PBS and then PKH67 labeled MDA-MB-231 shControl cells were added to wells at 25,000 cells/well. Cells were allowed to adhere for 4 hours at 37° C. Non-adhered cells were washed off with PBS and plates were read at 485 nm/535 nm (excitation/emission) wavelengths using a Tecan Infinite M200 Pro plate reader (Tecan). Values are represented as relative fluorescence intensity (RFI)."}, "Claudin-6 (CLDN6) [8]": {"tested_on": "Claudin-6 (CLDN6)", "assay": "5-azacytidine treatment, CLDN6 RT-qPCR", "type": "cell-based, human", "conditions": "HMLE, MCF-7, SK-BR-3, MDA-MB-231 cells, 1 uM for 5 days", "description": "(§1) Human normal and breast cancer cell lines were plated at 150,000 cells/well in a 6-well plate and treated with DMSO (vehicle) or 1 μM of 5-azacytidine (5-azaC, Sigma Aldrich) for 5 days. Cells were lifted using Versene (a gentle cell dissociator, Life Technologies), washed with PBS, pelleted and stored at −20° C. until required for analysis. RNA was isolated from frozen cells using the RNeasy mini kit (Qiagen) according to manufacturer's instructions. Equivalent amounts of RNA were treated with DNase (Qiagen). A portion of RNA was subjected to cDNA synthesis (ABI) as previously described. RNA concentration and purity were assessed at 260/280 nm using the spectrophotometer. Using synthesized cDNA, sequence-specific primers were used to amplify BST-2 [4] and GAPDH [13,48]. Claudin-6 was amplified with (F: […], R: […]) primer pair. RT-qPCR was carried out with an ABI 7500 FAST thermal cycler in triplicates as previously described."}, "BST-2 [9]": {"tested_on": "BST-2", "assay": "5-azacytidine treatment, BST-2 RT-qPCR and flow cytometry", "type": "cell-based, human", "conditions": "1 uM for 5 days", "description": "Cell lines of interest were plated at 150,000 cells/well in a 6-well plate and treated with DMSO (vehicle) or 1 μM of 5-azacytidine (5-azaC, Sigma Aldrich) for 5 days. Cells were harvested using 0.25% trypsin-EDTA (Mediatech, Corning, N.Y., USA). Post-incubation, 8 ml of 10% FBS-containing RPMI media (Life Technologies) was added and cells were centrifuged. Media was aspirated and individual cells were resuspended in 2% FBS-containing PBS (Life Technologies). Cell suspension was passed through a […] cell strainer (Falcon). Cells were incubated at 4° C. for 1 hour with APC-conjugated anti-BST-2 primary antibodies or appropriate IgG (Ebioscience) and washed with 1×PBS. After washing, cells were incubated with the fluorescent intercalator-7-aminoactinomycin D (7-AAD) (BioLegend) at 4° C. for 30 minutes to exclude dead cells. Stained cells were quantified using a FACS Calibur flow cytometer (BD). 10,000 events were collected per sample and FACS data were analyzed and plotted using Flowjo software (TreeStar).\nas §1"}}, "note": "Read-outs that look alike come from different tables or passages of the source. No end group written: not given here.", "data": [{"compound": "Nc1ncn([C@H]2C[C@H](O)[C@@H](CO)O2)c(=O)n1", "note": "[DAC, 2′-deoxy-5-azacytidine]", "values": [{"measurement": "BST-2 mRNA expression", "setting": "BST-2 [1]; HB2 cells, GEO GSE28976", "result": "increased BST-2 mRNA expression"}, {"measurement": "BST-2 mRNA expression", "setting": "BST-2 [1]; MCF-7 cells, GEO GSE36683", "result": "increased BST-2 mRNA expression"}, {"measurement": "BST-2 levels", "setting": "BST-2 [1]; MDA-MB-231 cells, GEO GSE28976", "result": "did not show any increase"}, {"measurement": "BST-2 levels", "setting": "BST-2 [1]; SK-BR-3 cells, GEO GSE28976", "result": "did not show any increase"}, {"measurement": "CLDN6 mRNA levels", "setting": "Claudin-6 (CLDN6) [2]", "result": "induced in all cell types"}]}, {"compound": "sh137: BST-2-targeting shRNA (SEQ ID NO:3), delivered by lentiviral particles (CCGGCGCGATCTTGGTGGTCCTGTTCTCGAGAACAGGACCACCAAGATCGCGTTTTTG)", "values": [{"measurement": "rate of cell migration (Boyden chamber)", "setting": "E0771 cells [3]", "result": "significantly reduced rate of cell migration"}, {"measurement": "cell viability (MTT)", "setting": "E0771 cells [4]", "result": "equally viable"}, {"measurement": "cell proliferation (BrdU incorporation)", "setting": "E0771 and 4T1 cells", "result": "no effect on cell proliferation"}, {"measurement": "migration into scratch wound", "setting": "mammary cancer cells [5]", "result": "showed some migration"}, {"measurement": "BST-2 expression", "setting": "BST-2 [6]", "result": "reduced BST-2 expression"}, {"measurement": "invasion through Matrigel", "setting": "E0771 or 4T1 cells", "result": "reduced the ability of the cells to invade the basement membrane"}, {"measurement": "colony numbers in soft agar", "setting": "mammary cancer cells [7]", "result": "reduced colony numbers"}]}, {"compound": "TIKANSEACRDGLRAVMECRNVTHLLQQELTEAQKGFQDVEAQAATCNHTVMA (cysteines drawn unpaired) [B49nc]", "values": [{"measurement": "half-life", "setting": "Half-life of B49nc", "result": "~20", "unit": "h"}, {"measurement": "cancer cell adhesion (relative fluorescence intensity)", "setting": "MDA-MB-231 cells", "result": "inhibits cancer cell adhesion"}]}, {"compound": "Nc1ncn([C@@H]2O[C@H](CO)[C@@H](O)[C@H]2O)c(=O)n1", "note": "[5-AzaC, 5-azacytidine]", "values": [{"measurement": "CLDN6 mRNA level", "setting": "Claudin-6 (CLDN6) [8]", "result": "induced in all cell types"}, {"measurement": "BST-2 levels (RNA and protein)", "setting": "BST-2 [9]; HMLE cells", "result": "significant increase"}, {"measurement": "BST-2 levels (RNA and protein)", "setting": "BST-2 [9]; MCF-7 cells", "result": "significant increase"}, {"measurement": "BST-2 mRNA and protein levels", "setting": "BST-2 [9]; MDA-MB-231 cells", "result": "unchanged"}, {"measurement": "BST-2 mRNA and protein levels", "setting": "BST-2 [9]; SK-BR-3 cells", "result": "unchanged"}]}]}
